Where a SMILES comes first, the peptide text is derived from it. [ ]: non-standard residue; d: D form.
Key:
Format in all cases: cell-based
[1] = test system: clinical strains of K. pneumoniae; test: MIC, microdilution, clinical strains; settings: 0.02% BSA, 0.2% acetic acid
Outline: (§1)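 Overnight MH agar colonies were suspended in MH broth to 5.0×10^5 cfu/ml, mixed with serial peptide dilutions (0.125–128 μg/ml) and incubated at 37° C for 20 to 24 hours. Yeast MICs were run the same way in potato dextrose broth, and wells were scored visually.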

[2] = test system: clinical strains of E. cloacae; test: MIC, microdilution, clinical strains; settings: 0.02% BSA, 0.2% acetic acid
Outline: as §1

[3] = test system: clinical strains of Proteus mirabilis; test: MIC, microdilution, clinical strains; settings: 0.02% BSA, 0.2% acetic acid
Outline: as §1

[4] = test system: clinical strains of S. aureus; test: MIC, microdilution, clinical strains; settings: 0.02% BSA, 0.2% acetic acid
Outline: as §1

[5] = test system: clinical strains of E. coli; test: MIC, microdilution, clinical strains; settings: microdilution, Muller Hinton broth-cation adjusted, 0.02% BSA, 0.2% acetic acid
Outline: as §1

[6] = test system: clinical strains of S. pneumoniae; test: MIC, microdilution, clinical strains; settings: 0.02% BSA, 0.2% acetic acid
Outline: as §1

[7] = test system: clinical strains of Serratia marcescens; test: MIC, microdilution, clinical strains; settings: 0.02% BSA, 0.2% acetic acid
Outline: as §1

[8] = test system: clinical strains of P. aeruginosa; test: MIC, microdilution, clinical strains; settings: 0.02% BSA, 0.2% acetic acid
Outline: as §1

C. quillermondiae = test: MIC, clinical yeast strains; set-up: Minimum inhibitory concentration: unit: μg/ml
Outline: (§2)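 MIC = lowest peptide concentration without visual growth after 20–24 h at 37° C. Range 0.125–128 μg/ml, inoculum 5.0×10^5 cfu/ml, microdilution format. Antifungal tests used potato dextrose broth; bacterial tests used MH broth.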

Candida albicans = test: MIC, clinical yeast strains
Outline: as §2

C. parapsilosis = test: MIC, clinical yeast strains
Outline: as §2

C. glabrata = test: MIC, clinical yeast strains
Outline: as §2

[9] = Klebsiella pneumoniae strain 1, Muller Hinton broth-cation adjusted
[10] = Klebsiella pneumoniae strain 2, Muller Hinton broth-cation adjusted
[11] = Klebsiella pneumoniae strain 3, Muller Hinton broth-cation adjusted
[12] = Klebsiella pneumoniae strain 4, Muller Hinton broth-cation adjusted
[13] = Klebsiella pneumoniae strain 5, Muller Hinton broth-cation adjusted
[14] = Enterobacter cloacae strain 1, Muller Hinton broth-cation adjusted
[15] = Enterobacter cloacae strain 2, Muller Hinton broth-cation adjusted
[16] = Enterobacter cloacae strain 3, Muller Hinton broth-cation adjusted
[17] = Enterobacter cloacae strain 4, Muller Hinton broth-cation adjusted
[18] = Enterobacter cloacae strain 5, Muller Hinton broth-cation adjusted
[19] = Proteus mirabilis strain 1, Muller Hinton broth-cation adjusted
[20] = Proteus mirabilis strain 2, Muller Hinton broth-cation adjusted
[21] = Proteus mirabilis strain 3, Muller Hinton broth-cation adjusted
[22] = Proteus mirabilis strain 4, Muller Hinton broth-cation adjusted
[23] = Proteus mirabilis strain 5, Muller Hinton broth-cation adjusted
[24] = Staphylococcus aureus strain 1, Muller Hinton broth-cation adjusted
[25] = Staphylococcus aureus strain 2, Muller Hinton broth-cation adjusted
[26] = Staphylococcus aureus strain 3, Muller Hinton broth-cation adjusted
[27] = Staphylococcus aureus strain 4, Muller Hinton broth-cation adjusted
[28] = Staphylococcus aureus strain 5, Muller Hinton broth-cation adjusted
[29] = Streptococcus pneumoniae strain 1, Muller Hinton broth-cation adjusted
[30] = Streptococcus pneumoniae strain 2, Muller Hinton broth-cation adjusted
[31] = Streptococcus pneumoniae strain 3, Muller Hinton broth-cation adjusted
[32] = Streptococcus pneumoniae strain 4, Muller Hinton broth-cation adjusted
[33] = Streptococcus pneumoniae strain 5, Muller Hinton broth-cation adjusted
[34] = Serratia marcescens strain 1, Muller Hinton broth-cation adjusted
[35] = Serratia marcescens strain 2, Muller Hinton broth-cation adjusted
[36] = Serratia marcescens strain 3, Muller Hinton broth-cation adjusted
[37] = Serratia marcescens strain 4, Muller Hinton broth-cation adjusted
[38] = Serratia marcescens strain 5, Muller Hinton broth-cation adjusted
[39] = Pseudomonas aeruginosa strain 1, Muller Hinton broth-cation adjusted
[40] = Pseudomonas aeruginosa strain 2, Muller Hinton broth-cation adjusted
[41] = Pseudomonas aeruginosa strain 3, Muller Hinton broth-cation adjusted
[42] = Pseudomonas aeruginosa strain 4, Muller Hinton broth-cation adjusted
[43] = Pseudomonas aeruginosa strain 5, Muller Hinton broth-cation adjusted
[44] = clinical yeast strain 1, D-form peptide, concentrations tested 0.125 to 128 μg/ml
[45] = clinical yeast strain 2, D-form peptide, concentrations tested 0.125 to 128 μg/ml
[46] = clinical yeast strain 3, D-form peptide, concentrations tested 0.125 to 128 μg/ml
[47] = clinical yeast strain 4, D-form peptide, concentrations tested 0.125 to 128 μg/ml

CC(C)C[C@@H](NC(=O)[C@@H](CCCCN)NC(=O)[C@@H](Cc1c[nH]c2ccccc12)NC(=O)[C@@H](CCCCN)NC(=O)[C@@H](C)NC(=O)[C@@H](Cc1c[nH]cn1)NC(=O)[C@@H](CC(C)C)NC(=O)[C@@H](CCCNC(=N)N)NC(=O)[C@@H](Cc1c[nH]c2ccccc12)NC(=O)[C@H](N)Cc1c[nH]c2ccccc12)C(=O)N[C@H](Cc1c[nH]c2ccccc12)C(=O)O [Chain109D] (H-[dW][dW][dR][dL][dH][dA][dK][dW][dK][dL][dW]-OH)
2: Minimum inhibitory concentration [4, 24] | Minimum inhibitory concentration [4, 26] | Minimum inhibitory concentration [4, 27] | Minimum inhibitory concentration [4, 28] | Minimum inhibitory concentration [6, 31]
4: Minimum inhibitory concentration [2, 14] | Minimum inhibitory concentration [2, 18] | Minimum inhibitory concentration [4, 25] | Minimum inhibitory concentration ([5]; Escherichia coli strain 2) | Minimum inhibitory concentration ([5]; Escherichia coli strain 3) | Minimum inhibitory concentration ([5]; Escherichia coli strain 4) | Minimum inhibitory concentration ([5]; Escherichia coli strain 5)
64: Minimum inhibitory concentration [3, 20] | Minimum inhibitory concentration [3, 21] | Minimum inhibitory concentration [7, 38] | Minimum inhibitory concentration, C. glabrata strain 4 (C. glabrata; [47])
16: Minimum inhibitory concentration [1, 9] | Minimum inhibitory concentration [1, 12] | Minimum inhibitory concentration ([5]; Escherichia coli strain 1) | Minimum inhibitory concentration [6, 29] | Minimum inhibitory concentration [8, 39] | Minimum inhibitory concentration [8, 40] | Minimum inhibitory concentration [8, 41] | Minimum inhibitory concentration [8, 42] | Minimum inhibitory concentration, C. glabrata strain 3 (C. glabrata; [46])
128: Minimum inhibitory concentration, C. quillermondiae strain 1 (C. quillermondiae; [44]) | Minimum inhibitory concentration, Candida albicans strain 1 (Candida albicans; [44]) | Minimum inhibitory concentration, Candida albicans strain 2 (Candida albicans; [45]) | Minimum inhibitory concentration, Candida albicans strain 3 (Candida albicans; [46]) | Minimum inhibitory concentration, Candida albicans strain 4 (Candida albicans; [47]) | Minimum inhibitory concentration, Candida albicans strain 5 (Candida albicans; clinical yeast strain 5, D-form peptide, concentrations tested 0.125 to 128 μg/ml) | Minimum inhibitory concentration, C. parapsilosis strain 1 (C. parapsilosis; [44]) | Minimum inhibitory concentration, C. parapsilosis strain 2 (C. parapsilosis; [45]) | Minimum inhibitory concentration, C. parapsilosis strain 3 (C. parapsilosis; [46]) | Minimum inhibitory concentration, C. glabrata strain 1 (C. glabrata; [44]) | Minimum inhibitory concentration, C. glabrata strain 2 (C. glabrata; [45])
8: Minimum inhibitory concentration [1, 10] | Minimum inhibitory concentration [1, 11] | Minimum inhibitory concentration [1, 13] | Minimum inhibitory concentration [2, 15] | Minimum inhibitory concentration [2, 16] | Minimum inhibitory concentration [2, 17] | Minimum inhibitory concentration [6, 30] | Minimum inhibitory concentration [6, 32] | Minimum inhibitory concentration [6, 33] | Minimum inhibitory concentration [8, 43] | Minimum inhibitory concentration, C. parapsilosis strain 4 (C. parapsilosis; [47])
>128: Minimum inhibitory concentration [3, 19] | Minimum inhibitory concentration [3, 22] | Minimum inhibitory concentration [3, 23] | Minimum inhibitory concentration [7, 34] | Minimum inhibitory concentration [7, 35] | Minimum inhibitory concentration [7, 36] | Minimum inhibitory concentration [7, 37]

CC(C)C[C@@H](NC(=O)[C@@H](CCCCN)NC(=O)[C@@H](CCCCN)NC(=O)[C@@H](Cc1ccccc1)NC(=O)[C@@H](CC(C)C)NC(=O)[C@@H](Cc1c[nH]c2ccccc12)NC(=O)[C@@H](CCCNC(=N)N)NC(=O)[C@@H](Cc1c[nH]c2ccccc12)NC(=O)[C@@H](CCCCN)NC(=O)[C@@H](CCCNC(=N)N)NC(=O)[C@H](N)CCCCN)C(=O)O [Chain310D] (H-[dK][dR][dK][dW][dR][dW][dL][dF][dK][dK][dL]-OH)
16: Minimum inhibitory concentration [2, 16] | Minimum inhibitory concentration [2, 18] | Minimum inhibitory concentration [4, 25] | Minimum inhibitory concentration ([5]; Escherichia coli strain 3) | Minimum inhibitory concentration ([5]; Escherichia coli strain 4) | Minimum inhibitory concentration ([5]; Escherichia coli strain 5) | Minimum inhibitory concentration [8, 40] | Minimum inhibitory concentration [8, 41] | Minimum inhibitory concentration (Candida albicans; Candida albicans clinical yeast strain 1) | Minimum inhibitory concentration (Candida albicans; Candida albicans clinical yeast strain 2) | Minimum inhibitory concentration (Candida albicans; Candida albicans clinical yeast strain 3) | Minimum inhibitory concentration (Candida albicans; Candida albicans clinical yeast strain 4) | Minimum inhibitory concentration (Candida albicans; Candida albicans clinical yeast strain 5) | Minimum inhibitory concentration (C. parapsilosis; C. parapsilosis clinical yeast strain 4) | Minimum inhibitory concentration (C. glabrata; C. glabrata clinical yeast strain 1) | Minimum inhibitory concentration (C. glabrata; C. glabrata clinical yeast strain 2)
32: Minimum inhibitory concentration [1, 13] | Minimum inhibitory concentration ([5]; Escherichia coli strain 2)
64: Minimum inhibitory concentration [1, 9] | Minimum inhibitory concentration [1, 10] | Minimum inhibitory concentration [1, 12] | Minimum inhibitory concentration [2, 15] | Minimum inhibitory concentration [6, 33] | Minimum inhibitory concentration (C. parapsilosis; C. parapsilosis clinical yeast strain 1) | Minimum inhibitory concentration (C. parapsilosis; C. parapsilosis clinical yeast strain 2) | Minimum inhibitory concentration (C. parapsilosis; C. parapsilosis clinical yeast strain 3)
8: Minimum inhibitory concentration [2, 17] | Minimum inhibitory concentration [4, 24] | Minimum inhibitory concentration [4, 26] | Minimum inhibitory concentration [4, 27] | Minimum inhibitory concentration [8, 39] | Minimum inhibitory concentration [8, 42] | Minimum inhibitory concentration (C. quillermondiae; C. quillermondiae clinical yeast strain 1)
>128: Minimum inhibitory concentration [3, 19] | Minimum inhibitory concentration [3, 20] | Minimum inhibitory concentration [3, 21] | Minimum inhibitory concentration [3, 22] | Minimum inhibitory concentration [3, 23] | Minimum inhibitory concentration [7, 34] | Minimum inhibitory concentration [7, 35] | Minimum inhibitory concentration [7, 36] | Minimum inhibitory concentration [7, 37] | Minimum inhibitory concentration [7, 38]
128: Minimum inhibitory concentration [1, 11] | Minimum inhibitory concentration [2, 14] | Minimum inhibitory concentration [6, 29] | Minimum inhibitory concentration [6, 30] | Minimum inhibitory concentration [6, 31] | Minimum inhibitory concentration [6, 32] | Minimum inhibitory concentration (C. glabrata; C. glabrata clinical yeast strain 3) | Minimum inhibitory concentration (C. glabrata; C. glabrata clinical yeast strain 4)
4: Minimum inhibitory concentration [4, 28] | Minimum inhibitory concentration ([5]; Escherichia coli strain 1) | Minimum inhibitory concentration [8, 43]

Source: US10457710B2, “Antimicrobial peptides, their variants and uses” (priority 2015, dated 2019)
